Source: the NIST ThermoML archive (doi:10.1016/j.jct.2013.09.035)

Test: wn = mass fraction of the nth substance listed
Settings: Liquid, Vibrating tube method, w2 = 0.5

CCOC(F)(F)C(F)(C(F)(F)F)C(F)(F)F [nonafluoroisobutyl ethyl ether] + CCOC(F)(F)C(F)(F)C(F)(F)C(F)(F)F
Settings	mass density [kg/m3]
283.47 K, 10000 kPa	1482.27
283.48 K, 100 kPa	1457.82
283.48 K, 1000 kPa	1460.24
283.48 K, 3000 kPa	1465.3
283.48 K, 5000 kPa	1470.22
283.48 K, 25000 kPa	1513.47
283.48 K, 30000 kPa	1522.25
283.49 K, 15000 kPa	1493.18
283.49 K, 20000 kPa	1503.4
283.49 K, 40000 kPa	1538.97
283.49 K, 50000 kPa	1553.61
283.49 K, 80000 kPa	1591.2
283.49 K, 90000 kPa	1602.13
283.49 K, 100000 kPa	1612.51
283.5 K, 60000 kPa	1567.59
283.5 K, 70000 kPa	1579.58
293.33 K, 40000 kPa	1520.74
293.33 K, 50000 kPa	1536.34
293.34 K, 100 kPa	1433.67
293.34 K, 3000 kPa	1442.2
293.34 K, 5000 kPa	1447.74
293.34 K, 10000 kPa	1460.66
293.34 K, 25000 kPa	1493.61
293.34 K, 80000 kPa	1575.81
293.35 K, 15000 kPa	1472.51
293.35 K, 20000 kPa	1483.44
293.35 K, 70010 kPa	1563.65
293.35 K, 100000 kPa	1597.56
293.36 K, 1000 kPa	1436.34
293.36 K, 30000 kPa	1503.18
293.36 K, 60000 kPa	1550.72
293.36 K, 90000 kPa	1586.86
303.23 K, 100 kPa	1410.99
303.23 K, 1000 kPa	1413.95
303.23 K, 3000 kPa	1420.34
303.23 K, 5000 kPa	1426.43
303.23 K, 10000 kPa	1440.51
303.23 K, 15000 kPa	1453.28
303.23 K, 30000 kPa	1485.94
303.23 K, 40000 kPa	1504.31
303.23 K, 70000 kPa	1549.38
303.23 K, 90000 kPa	1573.69
303.23 K, 100000 kPa	1584.73
303.24 K, 20000 kPa	1464.95
303.24 K, 25000 kPa	1475.81
303.24 K, 50000 kPa	1520.78
303.24 K, 60000 kPa	1535.65
303.24 K, 80000 kPa	1561.98
313.14 K, 40000 kPa	1487.04
313.15 K, 25000 kPa	1456.84
313.15 K, 50000 kPa	1504.3
313.15 K, 60000 kPa	1519.95
313.16 K, 15000 kPa	1432.86
313.16 K, 20000 kPa	1445.3
313.16 K, 30000 kPa	1467.53
313.17 K, 1000 kPa	1390.04
313.17 K, 5000 kPa	1403.68
313.17 K, 10000 kPa	1418.95
313.17 K, 100000 kPa	1571.77
313.18 K, 100 kPa	1386.8
313.18 K, 3000 kPa	1397.04
313.18 K, 90000 kPa	1559.98
313.19 K, 70000 kPa	1535.1
313.19 K, 80000 kPa	1547.94
323.03 K, 70000 kPa	1522.41
323.03 K, 79990 kPa	1535.93
323.03 K, 90000 kPa	1548.47
323.03 K, 100000 kPa	1560.39
323.04 K, 15000 kPa	1415.6
323.04 K, 20000 kPa	1429.06
323.04 K, 25000 kPa	1441.36
323.04 K, 30000 kPa	1452.73
323.04 K, 40000 kPa	1473.17
323.04 K, 50000 kPa	1491.32
323.04 K, 60000 kPa	1507.67
323.05 K, 100 kPa	1365.33
323.05 K, 1000 kPa	1368.99
323.05 K, 3000 kPa	1376.71
323.05 K, 5000 kPa	1384.07
323.05 K, 10000 kPa	1400.75
332.93 K, 80000 kPa	1522.17
332.93 K, 90000 kPa	1535.21
332.93 K, 100000 kPa	1547.28
332.94 K, 15000 kPa	1395.61
332.94 K, 20000 kPa	1409.99
332.94 K, 25000 kPa	1423.08
332.94 K, 30000 kPa	1435.1
332.94 K, 40000 kPa	1456.69
332.94 K, 50000 kPa	1475.63
332.94 K, 60000 kPa	1492.7
332.94 K, 70000 kPa	1508.09
332.95 K, 100 kPa	1340.66
332.95 K, 1000 kPa	1344.7
332.95 K, 3000 kPa	1353.32
332.95 K, 5000 kPa	1361.37
332.95 K, 10000 kPa	1379.59
342.83 K, 100 kPa	1316.31
342.83 K, 3000 kPa	1330.5
342.84 K, 1000 kPa	1320.87
342.84 K, 5000 kPa	1339.38
342.85 K, 10000 kPa	1359.29
342.85 K, 15000 kPa	1376.59
342.85 K, 20000 kPa	1391.96
342.86 K, 25000 kPa	1405.93
342.86 K, 30000 kPa	1418.67
342.86 K, 40000 kPa	1441.37
342.87 K, 60000 kPa	1479.04
342.87 K, 69990 kPa	1494.97
342.87 K, 80000 kPa	1509.52
342.88 K, 50000 kPa	1461.22
342.88 K, 90000 kPa	1522.96
342.88 K, 100000 kPa	1535.5
352.77 K, 3000 kPa	1307.3
352.78 K, 1000 kPa	1296.47
352.78 K, 5000 kPa	1317.18
352.78 K, 10000 kPa	1339.03
352.78 K, 15000 kPa	1357.74
352.78 K, 20000 kPa	1374.27
352.78 K, 25000 kPa	1389.09
352.78 K, 30000 kPa	1402.65
352.78 K, 40000 kPa	1426.56
352.78 K, 50000 kPa	1447.34
352.78 K, 60000 kPa	1465.76
352.79 K, 70000 kPa	1482.51
352.79 K, 80000 kPa	1497.6
352.79 K, 90000 kPa	1511.48
352.79 K, 100000 kPa	1524.4
362.72 K, 1000 kPa	1270.63
362.72 K, 3000 kPa	1282.75
362.73 K, 5000 kPa	1293.79
362.73 K, 10000 kPa	1317.75
362.73 K, 15000 kPa	1338.07
362.73 K, 20000 kPa	1355.77
362.73 K, 25000 kPa	1371.52
362.73 K, 30000 kPa	1385.83
362.73 K, 40000 kPa	1410.97
362.73 K, 50000 kPa	1432.73
362.73 K, 60000 kPa	1451.97
362.73 K, 70000 kPa	1469.11
362.73 K, 80000 kPa	1484.73
362.73 K, 90000 kPa	1499.1
362.73 K, 100000 kPa	1512.38
